The subject of series [1] is hot flashes, night sweats and other menopausal symptoms. As to conditions: for Impact on reducing the menopausal symptoms (hot flashes, night sweats): 2009, patient on Tamoxifen, Clonidine given with Vitamin E. An excerpt:
One of ordinary skill in the art would appreciate that this specific example is not intended to limit the scope of the invention.
In September of 1993, a person who had been experiencing severe menstrual cycles required a partial hysterectomy. […] Approximately a year after surgery, they were placed on Cenestin™ (a kind of hormone replacement therapy, i.e., “HRT”).
At this time, the patient began taking dosages of Wellbutrin™ and receiving another hormone replacement therapy of estrogen and testosterone to treat the hot flashes, night sweats and other menopausal symptoms.
In November of 2008, the patient was diagnosed with Stage 2 breast cancer and the HRT was discontinued immediately. Subsequently, the patient underwent a lumpectomy and the removal of fourteen lymph nodes (one tested positive).
In December 2008, the patient went through an intense treatment of chemotherapy which lasted until April 2009. At this time, a less intense chemotherapy treatment was continued until November 2009. The patient also received radiation therapy from April 2009 until June 2009. At the end of the radiation therapy, the patient was started on a regimen of Tamoxifen™.
Clonidine™ is a direct-acting α2 adrenergic agonist that is used to treat several medical conditions. […] Both the Clonidine™ and the Wellbutrin™ were discontinued in June 2009.
It was originally developed for the treatment of epilepsy, and currently, gabapentin is widely used to relieve pain, especially neuropathic pain. […] At this time, the patient was treated with Effexor™ (generic name Venlafaxine), a medication which is used primarily for the treatment of major depression, generalized anxiety disorder, social anxiety disorder, obsessive—compulsive disorder, panic disorder, and menopausal hot flashes in adults.
At this time, the patient began Wellbutrin™ again to treat the hot flashes, night sweats and other menopausal symptoms.
The dosage continued and remained the same for another 5 days.

Series [2] has as its system hot flashes. Briefly: Dextromethorphan HBr in menopausal women with no breast cancer history; severity and frequency of hot flashes. The series is classed as in vivo, human. The following applies: 15 mg in the morning and 15 mg in the evening; summary of Table 1. The method, then:
The dosage given in these test cases was 15 mg in the morning and 15 mg in the evening of Dextromethorphan, e.g., DextromethorphanHBr. The decrease in the symptoms of hormonal variation was noted by assessing the severity and frequency of hot flashes.

Series [3] relates to hot flashes. As to conditions: cited from earlier work.
The test system of series [4] is hot flashes. The following applies: men; double blind, cross over study; cited from earlier work.

Where two headings read alike, the source gives them in different places.

Turning to `COc1ccc2c(c1)[C@]13CCCC[C@@H]1[C@H](C2)N(C)CC3` [Dextromethorphan HBr], the “Hot flashes, night sweats and other menopausal symptoms” value in series [1] (30 mg per day (15 mg every 12 hours), by the third day) was “totally gone”. For the same molecule, the “Occurrence of hot flashes, night sweats and other menopausal symptoms” value in series [1] (30 mg per day (15 mg every 12 hours), two days after starting) is given as “reduced significantly”. Besides, in series [1] (after 8 days of 30 mg per day), the “Time to reoccurrence of menopausal symptoms after discontinuation” value was not above 24 h. The “Hot flashes, night sweats and menopausal symptoms after Wellbutrin was discontinued” value in series [1] (continuing Dextromethorphan HBr alone) is given as “did not reoccur”. The “Time to elimination of symptoms after again commencing treatment” value in series [1] (human, in vivo) is not above 24 h. In addition, the “Women who no longer had hot flashes when on Dextromethorphan” value in the series on hot flashes [2] was “four out of the five”.

With `CNCCC(Oc1ccc(C(F)(F)F)cc1)c1ccccc1` (stereo not drawn) [Fluoxetine], in the series on hot flashes [3] (20 mg/day, placebo 36%), the “Reduction in hot-flash scores” value is recorded as 50%.

With `CC/C(=C(\c1ccccc1)c1ccc(OCCN(C)C)cc1)c1ccccc1` [Tamoxifen™, tamoxifen], the “Hot flashes, night sweats and other menopausal symptoms since commencing treatment” value in series [1] (human, in vivo) was “increased in intensity”.

With `CC(NC(C)(C)C)C(=O)c1cccc(Cl)c1` (stereo not drawn) [Wellbutrin™, bupropian], the “Impact on reducing the menopausal symptoms (hot flashes, night sweats)” value in series [1] is reported as “no impact”. Further, the “Frequency and intensity of hot flashes, night sweats and other menopausal symptoms (patient report)” value in series [1] (Wellbutrin together with hormone replacement therapy of estrogen and testosterone, from 2006) is reported as “markedly reduced”.

Take `Clc1cccc(Cl)c1N=C1NCCN1` [clonidine]: the “Impact on reducing the menopausal symptoms (hot flashes, night sweats)” value in series [1] is listed as “no impact”. In the series with hot flashes [3] (randomized clinical trials), the “Adverse effects (dry mouth, dizziness, blurred vision)” value was “common” and the “Efficacy versus placebo in preventing hot flashes” value is on record as “moderately more efficacious than placebo”. Besides, in the series on hot flashes [3] (women treated with clonidine), the “Decrease of hot flash frequency greater than that seen with placebo” value is listed as 10-15%. Also, the “Difference from placebo effect in self-reported hot flash frequency” value in the series on hot flashes [4] was “not statistically significant”.

With `NCC1(CC(=O)O)CCCCC1` [gabapentin], in series [1], the “Impact on reducing the menopausal symptoms (hot flashes, night sweats)” value is reported as “no impact”. For the same molecule, the “Reduction of incidence of hot flashes” value with hot flashes [3] (pilot trials) is 42%-70%.

In the case of `CC(=O)O[C@]1(C(C)=O)CC[C@H]2[C@@H]3C=C(C)C4=CC(=O)CC[C@]4(C)[C@H]3CC[C@@]21C` [megestrol acetate], the “Reduction in self-reported hot flash frequency” value in the series on hot flashes [3] (men and women, placebo 20%) is on record as approximately 80%.

Turning to `COc1ccc(C(CN(C)C)C2(O)CCCCC2)cc1` (stereo not drawn) [venlafaxine], the “Impact on reducing the menopausal symptoms (hot flashes, night sweats)” value in series [1] was “no impact”. For the same molecule, the “Reduction in hot-flash scores” value in the series with hot flashes [3] (randomized clinical trial, low dose (37.5 mg/day), placebo 27%) is given as 37%; in the series on hot flashes [3] (randomized clinical trial, moderate and high doses (75 and 150 mg/day), statistically significant), 61%.

The values are drawn from patent US9457022B2, “Methods and compositions for treating or preventing symptoms of hormonal variations” (priority 2010, dated 2016).
